From ChEMBL document CHEMBL2396595, “New eudesmane sesquiterpenes from Alpinia oxyphylla and determination of their inhibitory effects on microglia” (Bioorg Med Chem Lett, 2013) come the findings set out here.

Data set [1] can be described thus: Cytotoxicity against mouse BV2 cells assessed as maximum non-toxic concentration after 24 hrs by MTT assay. The class given is cell-based, BV-2. (Formazan colour is commonly taken as a measure of viable cells.)
Data set [2] relates to BV-2. The experiment in a line: Neuroprotective activity in mouse BV2 cells assessed as inhibition of LPS-induced nitric oxide production at maximum non-toxic concentration treated 1 hr before LPS addition measured after 24 hrs by colorimetric analysis. The class given is functional, cell-based.
Data set [3] concerns BV-2. The experiment in a line: Neuroprotective activity in mouse BV2 cells assessed as increase of LPS-induced nitric oxide production at maximum non-toxic concentration treated 1 hr before LPS addition measured after 24 hrs by colorimetric analysis. Type of data set: functional, cell-based.
The subject of data set [4] is BV-2. The experiment in a line: Neuroprotective activity in mouse BV2 cells assessed as increase of LPS-induced TNFalpha production at maximum non-toxic concentration treated 1 hr before LPS addition measured after 24 hrs by ELISA. The class given is functional, cell-based.
In data set [5] the test system is BV-2. The experiment in a line: Neuroprotective activity in mouse BV2 cells assessed as inhibition of LPS-induced TNFalpha production at maximum non-toxic concentration treated 1 hr before LPS addition measured after 24 hrs by ELISA. Type of data set: functional, cell-based. For orientation: ELISA stands for enzyme-linked immunosorbent assay.

SMILES strings stand for the structures. Activity calls are given as the source filed them. The rule behind the calls is not given here.

As for `CC(=O)[C@H]1CC[C@@]2(C)CC(=O)C=C(C)[C@@]2(O)C1`, the MNTC at 24 h in data set [1] came out at 100 µM. Further, the inhibition entry in data set [2] is “inactive”. Further, the result in data set [3] was Active.

Take `CC(C)[C@H]1CCC(=O)C2=C1[C@H](O)[C@](C)(O)CC2` [OXYPHYLLENODIOL B]: the MNTC at 24 h in data set [1] is 1 µM. Also, in data set [2], the inhibition entry is “Active”.

For the compound `CC(C)[C@@H]1CCC(=O)C2=C1[C@H](O)[C@](C)(O)CC2` [OXYPHYLLENODIOL A], in data set [1], the MNTC at 24 h worked out at 100 µM. Besides, the inhibition result in data set [2] was “inactive”.

Turning to `N=C(N)NN` [PIMAGEDINE], the MNTC at 24 h in data set [1] is 1000 µM.

On to `Cc1ccc2c(c1)[C@H](C(C)C)CCC2=O` [(4S)-10-NOR-CALAMENEN-10-ONE], for which, in data set [1], the MNTC at 24 h is 0.1 µM. For the same compound, the inhibition entry in data set [2] was “inactive”. Besides, the result in data set [3] was Active.

`Cc1ccc2c(c1O)[C@H](C(C)C)CCC2=O`: the MNTC at 24 h in data set [1] turned out to be 100 µM. Moreover, the inhibition result in data set [2] is “Active”.

On to `CC1=CC(=O)C[C@@]2(C)C[C@H]3OC(=O)C(C)=C3C[C@H]12`, for which the MNTC at 24 h in data set [1] worked out at 100 µM. The inhibition result in data set [2] was “inactive”. The outcome in data set [3] was Active.

As to `COc1ccc2c(c1)c(CC(=O)O)c(C)n2C(=O)c1ccc(Cl)cc1` [INDOMETHACIN], the MNTC at 24 h in data set [1] stood at 10 µM.

On to `C=C(C)[C@@H]1CCC2=CC(=O)C[C@@H](C)[C@]2(C)C1` [NOOTKATONE], for which, in data set [1], the MNTC at 24 h is 0.1 µM. In data set [2], the inhibition entry was “inactive”. The outcome in data set [4] was Active.

With `CC(=O)C1=CC2=C(C)C(=O)CC[C@@]2(C)CC1`, in data set [1], the MNTC at 24 h turned out to be 100 µM. In data set [2], the inhibition entry was “inactive”. For the same compound, the outcome in data set [3] was Active.

With `C=C(C)[C@@H]1CCC2=C[C@@H](O)C[C@@H](C)[C@]2(C)C1` [BETA-NOOTKATOL], the MNTC at 24 h in data set [1] came to 30 µM. The inhibition result in data set [2] is “Active”.

Regarding `C[C@@H]1CC(=O)C=C2CC[C@@H]([C@](C)(O)CO)C[C@]21C` [(11S)-NOOTKATONE-11,12-DIOL], in data set [1], the MNTC at 24 h was found to be 30 µM. Besides, in data set [2], the inhibition result is “inactive”.

As for `C=C(C)[C@]1(O)CC[C@]2(C)CC(=O)C=C(C)[C@H]2C1`, the MNTC at 24 h in data set [1] was 0.1 µM. In data set [2], the inhibition result was “inactive”. Further, the result in data set [4] was Active.

Take `CC1=C2C=C(C(C)(O)CO)CC[C@]2(C)CCC1=O` (stereo not given in full) [OXYPHYLLANENE F]: in data set [1], the MNTC at 24 h amounted to 0.1 µM. Further, the inhibition entry in data set [2] was “inactive”.

For `C[C@@]12CCC(=O)C=C1[C@](C)(O)[C@H](O)CC2` [OXYPHYLLENONE B], in data set [1], the MNTC at 24 h was 10 µM. Further, in data set [2], the inhibition entry is “inactive”.

As for `C=C(C)[C@@H]1CC(=O)C2=CC(=O)C[C@@H](C)[C@]2(C)C1`, the MNTC at 24 h in data set [1] is 0.1 µM. Also, in data set [2], the inhibition result was “Active”. In addition, the outcome in data set [4] was Active.

Take `C[C@@]12CCC(=O)C=C1[C@@](C)(O)[C@H](O)CC2` [OXYPHYLLENONE A]: in data set [1], the MNTC at 24 h is 100 µM. In addition, the inhibition result in data set [2] is “inactive”. Moreover, the inhibition result in data set [5] is “Active”.
